Assay results as given in US5137720A, “Antiviral combination, and method of treatment” (Ciba-Geigy Corporation, priority 1988, dated 1992).

Key:
[1] = system: rat alveolar macrophages; test: In vitro alveolar macrophage-mediated cytotoxicity against MADB-200 tumor cells (crystal violet); format: cell-based; conditions: interferon 0
Experimental: Macrophage-mediated cytotoxicity was assessed against syngeneic MADB-200 adenocarcinoma target cells available from the American Type Culture Collection, ATCC. These cells were maintained as monolayer cultures in MEM supplemented with 10% fetal calf serum. Cultures were maintained at 37° C. in a humidified atmosphere containing 5% CO2. Cultures were routinely tested for the presence of mycoplasma.
Alveolar macrophages (AM) were collected by transtracheal lavage (Brownbill and Schumann, Cancer Immunol. Immunother. 20, 11-17, 1985). The cells recovered from lavage fluids were centrifuged at 400× g for 10 minutes, suspended in serum-free medium, and plated into 96-well Microtest II plastic tissue culture dishes at 5×10^4 cells per well. After incubation for 60 minutes, cells were washed with HBSS to remove non-adherent […].
Purified cultures of rat alveolar macrophages were incubated at 37° C. for 1 hour with 0.2 ml of control medium, recombinant alpha B1 D2 B3 B4, MTP-PE, or a combination of alpha B1 D2 B3 B4 and MTP-PE. To these treated cells, 5×10^3 MADB-200 tumor cells were added and allowed to incubate for 72 hours at 37° C. Thus, 50,000 macrophages were incubated with 5000 tumor cells.
A colorimetric assay using crystal violet staining of remaining MADB-200 tumor cells was used to determine macrophage cytotoxicity (Brownbill and Schumann, Cancer Immunol. Immunother. 20, 11-17, 1985). Briefly, following incubation, wells are washed with HBSS and the remaining cells fixed with formalin and stained with crystal violet. Each well is thoroughly washed after staining, the cells decolorized with alcohol, and the extract read with a colorimeter. The % cytotoxic activity of alveolar macrophages was calculated as follows: [formula]

[2] = system: HSV-2/MS; test: Herpes genitalis in the guinea pig, local lesion scores; format: in vivo, guinea pigs of the Pirbright strain
Experimental: Female albino guinea-pigs of the Pirbright strain, weighing 200-300 g, are infected intravaginally after gentle opening of the introitus vaginae with a forceps. Thereafter, pieces of fibrin foam (SEVAC, Prague) measuring 5×5×4 mm are impregnated with 0.05 ml containing about 10^4 PFU of HSV 2/MS from cultures in HEL. These pieces are introduced intravaginally (1-2). The animals are kept in groups of 4-5 in type 4 Macrolon cages.
Three days after infection, by which time the local symptomatology scores (see below) range from 3 to 6 in about 90% of the animals, these animals are divided at random into groups of 10-15 per preparation and untreated control. Treatment is started 72 hours after infection and administered twice daily for 5 days. One tenth of a milliliter is applied intravaginally and 0.1 ml extravaginally.
From the 3rd day onwards, the local symptoms are evaluated thrice weekly. The criteria applied in assessing the therapeutic effects of treatment are the rate and the degree of regression of overt signs of infection in the individual animals. The degree and severity of local symptoms are scored according to the following points system:
The number indicated in the following Table of female albino guinea pigs of the Pirbright strain (150-180 g body weight) are infected intravaginally with ~10^4 PFU (plaque-forming units) of herpes simplex type 2 virus, cultivated in HEL (human embryonal lungs) cells, as described in B. Lukas et al., Arch. ges. Virusforsch. 44, 153-155 (1974).
Beginning 72 h after infection, animals are treated intravaginally twice a day for 5 days with 0.2 ml of a gel containing one of the following: i) alpha interferon B1 D2 B3 B4 at 1.5×10^6 units/kg; ii) Liposome-encapsulated MTP-PE at 1 mg/kg and iii) a mixture of both. Guinea pigs receiving placebo treatment are given a gel without active ingredients.

[3] = Body distribution of liposomes following i.v. administration; format: in vivo; conditions: rodents
Experimental: Alpha interferon is diluted in calcium and magnesium free PBS, and 2.5 ml is used to reconstitute 250 mg lyophilized synthetic lipids (POPC/OOPS, 7:3 molar ratio) containing 1 mg MTP-PE. This mixture is vigorously shaken in a Vortex mixer for 2 minutes and allowed to stand for 30 minutes prior to revortexing and the addition of another 2.5 ml of PBS. It is found (using I^125 labelled alpha interferon) that approximately 20% of the interferon is bound to liposomes following this reconstitution procedure. Liposomes prepared in this manner have the same physical properties as liposomes containing only MTP-PE and appear to follow the same body distribution profile following i.v. administration in rodents. Approximately 2-3 times more MTP-PE and interferon reach the lung when both substances are incorporated into liposomes as compared to unencapsulated forms.

CCCCCCCCCCCCCCCC(=O)OC[C@H](COP(=O)([O-])OCCNC(=O)[C@H](C)NC(=O)CC[C@@H](NC(=O)[C@H](C)NC(=O)[C@@H](C)O[C@H]1[C@H](O)[C@@H](CO)O[C@@H](O)[C@@H]1NC(C)=O)C(N)=O)OC(=O)CCCCCCCCCCCCCCC.[Na+] [MTP-PE, N-acetyl-muramyl-L-alanyl-D-isoglutaminyl-L-alanine-2-(1,2-di-palmitoyl-sn-glycero-3-hydroxyphosphoryloxy)-ethylamide-sodium salt]
% Cytotoxicity ([1]; MTP-PE alone 0.01 μg/ml): 0%
% Cytotoxicity ([1]; MTP-PE alone 0.03 μg/ml): 7%
% Cytotoxicity ([1]; MTP-PE alone 0.1 μg/ml): 10%
Mean Lesion Score ± Standard Error ([2]; day 3 after infection (start of treatment), gel intravaginally twice a day for 5 days, interferon 1.5×10^6 units/kg, liposome-encapsulated MTP-PE 1 mg/kg): 1.9 ± 0.23
Mean Lesion Score ± Standard Error ([2]; day 5 after infection, same treatment): 2.8 ± 1.15
Mean Lesion Score ± Standard Error ([2]; day 7 after infection, same treatment): 4.3 ± 1.32
Mean Lesion Score ± Standard Error ([2]; day 10 after infection, same treatment): 4.0 ± 1.93
Mean Lesion Score ± Standard Error ([2]; day 12 after infection, same treatment): 4.3 ± 1.42
Mean Lesion Score ± Standard Error ([2]; day 14 after infection, same treatment): 4.3 ± 1.42
Mean Lesion Score ± Standard Error ([2]; day 17 after infection, same treatment): 3.0 ± 1.60
amount reaching the lung, both substances incorporated into liposomes as compared to unencapsulated forms [3]: 2-3 times
